Measured values reported in ChEMBL document CHEMBL1130975, “Preparation of alpha-keto ester enol acetates as potential prodrugs of human neutrophil elastase inhibitors” (Bioorg Med Chem Lett, 1998).

Tests used:
[1] = target: T1, S-formylglutathione hydrolase (Sus scrofa) (UniProt Q9GJT2); conditions: 45 nM
T1 sequence (whole entry): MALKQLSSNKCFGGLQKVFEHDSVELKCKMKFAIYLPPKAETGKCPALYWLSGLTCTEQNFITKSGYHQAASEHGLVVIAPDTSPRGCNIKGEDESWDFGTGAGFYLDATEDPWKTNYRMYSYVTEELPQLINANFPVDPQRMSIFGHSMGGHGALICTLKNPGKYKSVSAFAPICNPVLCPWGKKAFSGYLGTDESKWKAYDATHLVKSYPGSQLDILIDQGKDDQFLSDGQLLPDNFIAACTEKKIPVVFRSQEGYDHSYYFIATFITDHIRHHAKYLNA
Description: Tested for rate of substrate hydrolysis in the presence of porcine kidney esterase at a concentration of 45 nM

[2] = target: T2, Neutrophil elastase (Homo sapiens) (UniProt P08246); assay: Tested for rate of substrate hydrolysis in the presence of human neutrophil elastase at a concentration of 10 nM
T2 sequence (whole entry): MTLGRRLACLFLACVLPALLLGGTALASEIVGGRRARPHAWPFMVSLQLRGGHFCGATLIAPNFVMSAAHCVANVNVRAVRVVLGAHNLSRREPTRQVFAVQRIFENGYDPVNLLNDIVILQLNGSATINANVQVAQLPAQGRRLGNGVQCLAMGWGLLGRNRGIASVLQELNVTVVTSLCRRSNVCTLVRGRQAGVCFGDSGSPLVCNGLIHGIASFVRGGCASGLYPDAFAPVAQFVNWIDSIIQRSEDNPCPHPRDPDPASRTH

[3] = target: T1, S-formylglutathione hydrolase (Sus scrofa); conditions: 10 nM
Description: Tested for rate of substrate hydrolysis in the presence of porcine kidney esterase at a concentration of 10 nM

[4] = target: T2, Neutrophil elastase (Homo sapiens); assay: Tested for rate of substrate hydrolysis in the presence of human neutrophil elastase at a concentration of 45 nM
[5] = target: T1, S-formylglutathione hydrolase (Sus scrofa); assay: Tested for rate of substrate hydrolysis in the presence of porcine kidney esterase at a concentration of 1 uM
[6] = target: T2, Neutrophil elastase (Homo sapiens); assay: Tested for rate of substrate hydrolysis in the presence of human neutrophil elastase at a concentration of 1 uM
[7] = target: T1, S-formylglutathione hydrolase (Sus scrofa); assay: Tested for rate of substrate hydrolysis in the presence of porcine kidney esterase at a concentration of 9 uM
[8] = target: T2, Neutrophil elastase (Homo sapiens); assay: Tested for rate of substrate hydrolysis in the presence of human neutrophil elastase at a concentration of 9 uM
Neutrophil elastase = target: T3, Neutrophil elastase (Homo sapiens, UniProt P08246); assay: Tested for rate of substrate hydrolysis in the presence of human neutrophil elastase
T3 sequence (P08246 whole entry): T2 sequence (whole entry)

## COC(=O)/C(OC(C)=O)=C(\NC(=O)[C@@H]1CCCN1C(=O)[C@H](C)NC(=O)[C@H](C)NC(=O)c1ccc(C(=O)NS(=O)(=O)c2ccc(Cl)cc2)cc1)C(C)C
[1]
  Rate: 37%
[2]
  Rate: 99%
[3]
  Rate: 76%
[4]
  Rate: 94%

## COC(=O)CCC(=O)N[C@@H](C)C(=O)N[C@@H](C)C(=O)N1CCC[C@H]1C(=O)N/C(=C(/OC(C)=O)C(=O)OC)C(C)C
[5]
  Rate: 24%
[6]
  Rate: 81%
[7]
  Rate: 2.8%
[8]
  Rate: 35%

## COC(=O)C(=O)[C@@H](NC(=O)C1CCCN1C(=O)[C@H](C)NC(=O)[C@H](C)NC(=O)c1ccc(C(=O)NS(=O)(=O)c2ccc(Cl)cc2)cc1)C(C)C (stereo not given in full)
Neutrophil elastase
  Ki: 2 nM

## COC(=O)CCC(=O)N[C@@H](C)C(=O)N[C@@H](C)C(=O)N1CCC[C@H]1C(=O)N[C@H](C(=O)C(=O)OC)C(C)C
Neutrophil elastase
  Ki: 200 nM
